The source of these data is patent publication US20250145589A1, “PYRIDINE DERIVATIVE AND USE THEREOF” (SICHUAN HUIYU PHARMACEUTICAL CO., LTD., priority 2021, published 2025).

Assay [1] relates to NCI-H358 cells (KRAS G12C mutant). Nature of the assay: NCI-H358 cell proliferation inhibition (CellTiter-Glo). As to conditions: Homo sapiens, NCI-H358, 72 h; H358 cells (G12C mutation), 3 days, Table 6; read-out: NCI-H358 (IC50). The class given is cell-based. (Cellular ATP, detected with luciferase, serves as a proxy for viable cell number.)
The test system of assay [2] is NCI-H358-AMGR drug-resistant cell line. Nature of the assay: NCI-H358-AMGR drug-resistant cell proliferation inhibitory activity test. The class given is cell-based. To be noted: 72 h; NCI-H358-AMGR drug-resistant cells, 3 days incubation, CellTiter-Glo. The gist of the method:
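Luminescent CellTiter-Glo read-out after 3-day, 37° C compound exposure (8 points, 5-fold series) of AMG510-resistant NCI-H358 cells plated at 4×10^3 per well.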

As to `COc1ncc(-c2ccc3ncnc(C4CCN(C(=O)/C=C/C(C)=O)CC4)c3n2)cc1NS(=O)(=O)c1sc(C)nc1C` [Example 230, (E)-N-(2-methoxy-5-(4-(1-(4-oxopent-2-enoyl)piperidin-4-yl)pyrido[3,2-d]pyrimidin-6-yl)pyridin-3-yl)-2,4-dimethylthiazol-5-sulfonamide], the 50% inhibitory concentration (IC50) (usually the concentration needed to halve the response being measured) in assay [1] was found to be 6.9 nM; in assay [2], 26.7 nM.
For `CCOc1ncc(-c2ccc3ncnc(N4CCN(C(=O)/C=C/C(C)=O)CC4)c3c2)cc1NS(=O)(=O)c1ccc(F)cc1F` [Example 109, (E)-N-(2-ethoxy-5-(4-(4-(4-oxopent-2-enoyl)piperazin-1-yl)quinazolin-6-yl)pyridin-3-yl)-2,4-difluorobenzenesulfonamide], in that order: 63.8 nM and 113 nM.
For the molecule `COc1ncc(-c2ccc3ncnc(N4CCN(C(=O)/C=C/C(C)=O)CC4)c3c2)cc1NS(=O)(=O)c1ccc(F)cc1F` [Example 6, (E)-2,4-difluoro-N-(2-methoxy-5-(4-(4-(4-oxopent-2-enoyl)piperazin-1-yl)quinazoline-6-yl)pyridin-3-yl)benzenesulfonamide], the IC50 came to 18 nM in assay [1] and 15.6 nM in assay [2].
Turning to `COc1ncc(-c2ccc3ncnc(N4CCC5(CC4)CN(C(=O)/C=C/C(C)=O)C5)c3c2)cc1NS(=O)(=O)c1ccc(F)cc1` [Example 161, (E)-4-fluoro-N-(2-methoxy-5-(4-(2-(4-oxopent-2-enoyl)-2,7-diazaspiro[3.5]nonan-7-yl)quinazolin-6-yl)pyridin-3-yl)benzenesulfonamide], the half-maximal inhibitory concentration (IC50) in assay [1] turned out to be 43.4 nM; in assay [2], 145 nM.
For `COc1ncc(-c2ccc3ncnc(C4CCN(C(=O)/C=C/C(C)=O)CC4)c3n2)cc1NS(=O)(=O)c1ccc(F)cc1F` [Example 234, (E)-2,4-difluoro-N-(2-methoxy-5-(4-(1-(4-oxopent-2-enoyl)piperidin-4-yl)pyrido[3,2-d]pyrimidin-6-yl)pyridin-3-yl)benzenesulfonamide], in that order: 5.5 nM and 58.2 nM.
As to `COc1ncc(-c2ccc3ncnc(N4C[C@@H](C)N(C(=O)/C=C/C(C)=O)C[C@@H]4C)c3c2)cc1NS(=O)(=O)c1c(F)cccc1F` [Example 51, N-(5-(4-((2S,5R)-2,5-dimethyl-4-((E)-4-oxopent-2-enoyl)piperazin-1-yl)quinazolin-6-yl)-2-methoxypyridin-3-yl)-2,6-difluorobenzene-sulfonamide], the figures for the IC50 in assay [1] and in assay [2] were 48.7 nM and 61 nM, respectively.
For `COc1ncc(-c2ccc3ncnc(N4CCN(C(=O)/C=C/C(C)=O)C[C@@H]4C)c3c2)cc1NS(=O)(=O)c1ccc(F)cc1` [Example 153, (S,E)-4-fluoro-N-(2-methoxy-5-(4-(2-methyl-4-(4-oxopent-2-enoyl)piperazin-1-yl)quinazolin-6-yl)pyridin-3-yl)benzenesulfonamide], in that order: 59.8 nM and 100 nM.
For `COc1ncc(-c2ccc3ncnc(N4CCN(C5CN(C(=O)/C=C/C(C)=O)C5)CC4)c3c2)cc1NS(=O)(=O)c1ccc(F)cc1F` [Example 56, (E)-2,4-difluoro-N-(2-methoxy-5-(4-(4-(1-(4-oxopent-2-enoyl)azetidin-3-yl)piperazin-1-yl)quinazolin-6-yl)pyridin-3-yl)benzenesulfon-amide], in that order: 69.7 nM and 116 nM.
For `COc1ncc(-c2ccc3ncnc(C4CCN(C(=O)/C=C/C(C)=O)CC4)c3n2)cc1NS(=O)(=O)c1c(F)cccc1F` [Example 233, (E)-2,6-difluoro-N-(2-methoxy-5-(4-(1-(4-oxopent-2-enoyl)piperidin-4-yl)pyrido[3,2-d]pyrimidin-6-yl)pyridin-3-yl)benzenesulfonamide], in that order: 5 nM and 52 nM.
Take `COc1ncc(-c2ccc3ncnc(N4CCN(C(=O)/C=C/C(C)=O)CC4)c3c2)cc1NS(=O)(=O)c1c(F)cc(F)cc1F` [Example 99, (E)-2,4,6-trifluoro-N-(2-methoxy-5-(4-(4-(4-oxopent-2-enoyl)piperazin-1-yl)quinazolin-6-yl)pyridin-3-yl)benzenesulfonamide]: the IC50 in assay [1] was determined as 9.6 nM; in assay [2] it was 65.2 nM.
Taken in the same sequence, the figures for `COc1ncc(-c2ccc3ncnc(C4=CCN(C(=O)/C=C/C(C)=O)CC4)c3c2)cc1NS(=O)(=O)c1ccccc1F` [Example 200, (E)-2-fluoro-N-(2-methoxy-5-(4-(1-(4-oxopent-2-enoyl)-1,2,3,6-tetrahydropyridin-4-yl)quinazolin-6-yl)pyridin-3-yl)benzene-sulfonamide] were 10.9 nM and 6.5 nM.
Taken in the same sequence, the figures for `COc1ncc(-c2ccc3ncnc(N4CCC5(CC=CC5=O)CC4)c3c2)cc1NS(=O)(=O)c1ccc(F)cc1F` [Example 70, 2,4-difluoro-N-(2-methoxy-5-(4-(1-oxo-8-azaspiro[4,5]dec-2-en-8-yl)quinazolin-6-yl)pyridin-3-yl)benzenesulfonamide] were 58.4 nM and 74.5 nM.
Taken in the same sequence, the figures for `COc1ncc(-c2ccc3ncnc(C4CCN(C(=O)/C=C/C(C)=O)CC4)c3n2)cc1NS(=O)(=O)c1ccccc1F` [Example 232, (E)-2-fluoro-N-(2-methoxy-5-(4-(1-(4-oxopent-2-enoyl)piperidin-4-yl)pyrido[3,2-d]pyrimidin-6-yl)pyridin-3-yl)benzenesulfonamide] were 8.7 nM and 44 nM.
Consider `COc1ncc(-c2ccc3ncnc(N4CCN(C(=O)/C=C/C(C)=O)C[C@@H]4C)c3c2)cc1NS(=O)(=O)c1ccc(F)cc1Cl` [Example 174, (S,E)-2-chloro-4-fluoro-N-(2-methoxy-5-(4-(2-methyl-4-(4-oxopent-2-enoyl)piperazin-1-yl)quinazolin-6-yl)pyridin-3-yl)benzene-sulfonamide], for which the half-maximal inhibitory concentration (IC50) in assay [1] was 15.8 nM; in assay [2], 28.6 nM.
Taken in the same sequence, the figures for `COc1ncc(-c2ccc3ncnc(N4CCN(C(=O)/C=C/C(C)=O)CC4)c3n2)cc1NS(=O)(=O)c1c(F)cc(F)cc1F` [Example 219, (E)-2,4-trifluoro-N-(2-methoxy-5-(4-(4-(4-oxopent-2-enoyl)piperazin-1-yl)pyrido[3,2-d]pyrimidin-6-yl)pyridin-3-yl) benzene-sulfonamide] were 7.3 nM and 15.9 nM.
For `COC(=O)c1ncc(-c2ccc3ncnc(N4CCN(C(=O)/C=C/C(C)=O)CC4)c3c2)cc1NS(=O)(=O)c1ccc(F)cc1F` [Example 181, methyl (E)-3-((2,4-difluoro-phenyl)sulfonamido)-5-(4-(4-(4-oxopent-2-enoyl)piperazin-1-yl)quinazolin-6-yl)picolinate], in that order: 49.7 nM and 284 nM.
For `COc1ncc(-c2ccc3ncnc(C4CCN(C(=O)/C=C/C(C)=O)CC4)c3c2)cc1NS(=O)(=O)c1ccccc1F` [Example 204, (E)-2-fluoro-N-(2-methoxy-5-(4-(1-(4-oxopent-2-enoyl)piperidin-4-yl)quinazolin-6-yl)pyridin-3-yl)benzenesulfonamide], in that order: 25.2 nM and 47.1 nM.
`COc1ncc(-c2ccc3ncnc(N4CCN(C(=O)/C=C/C(C)=O)CC4)c3n2)cc1NS(=O)(=O)c1c(Cl)cncc1Cl` [Example 224, (E)-3,5-dichloro-N-(2-methoxy-5-(4-(4-(4-oxopent-2-enoyl)piperazin-1-yl)pyrido[3,2-d]pyrimidin-6-yl)pyridin-3-yl) pyridine-4-sulfonamide]: the IC50 in assay [1] came to 88.1 nM; in assay [2], 220 nM.
For `COc1ncc(-c2ccc3ncnc(N4CCN(C(=O)/C=C/C(C)=O)CC4)c3n2)cc1NS(=O)(=O)c1c(F)cccc1F` [Example 131, (E)-2,6-difluoro-N-(2-methoxy-5-(4-(4-(4-oxopent-2-enoyl)piperazin-1-yl)pyrido[3,2-d]pyrimidin-6-yl)pyridin-3-yl)benzenesulfonamide], in that order: 5.2 nM and 19.1 nM.
Regarding `COc1ncc(-c2ccc3ncnc(N4CCN(C(=O)/C=C/C(C)=O)CC4)c3n2)cc1NS(=O)(=O)c1c(F)cncc1F` [Example 210, (E)-3,5-difluoro-N-(2-methoxy-5-(4-(4-(4-oxopent-2-enoyl)piperazin-1-yl)pyrido[3,2-d]pyrimidin-6-yl)pyridin-3-yl)pyridine-4-sulfonamide], the IC50 was 53.4 nM in assay [1] and 287 nM in assay [2].
As for `COc1ncc(-c2ccc3ncnc(N4C[C@@H](C)N(C(=O)/C=C/C(C)=O)C[C@@H]4C)c3c2)cc1NS(=O)(=O)c1ccc(F)cc1F` [Example 15, N-(5-(4-((2S,5R)-2,5-dimethyl-4-((E)-4-oxopent-2-enoyl)piperazin-1-yl)quinazolin-6-yl)-2-methoxypyridin-3-yl)-2,4-difluorobenzenesulfonamide], the values for the concentration for half-maximal inhibition (IC50) in assay [1] and in assay [2] were 19.9 nM and 62.1 nM, respectively.
For `COc1ncc(-c2ccc3ncnc(N4CCC5(CC4)CN(C(=O)/C=C/C(C)=O)C5)c3c2)cc1NS(=O)(=O)c1ccc(F)cc1F` [Example 20, (E)-2,4-difluoro-N-(2-methoxy-5-(4-(2-(4-oxopent-2-enoyl)-2,7-diazaspiro[3.5]nonan-7-yl)quinazolin-6-yl)pyridin-3-yl)benzenesulfonamide], the IC50 in assay [1] was 26.2 nM; in assay [2], 48.7 nM.
Consider `[2H]C([2H])([2H])Oc1ncc(-c2ccc3ncnc(N4CCN(C(=O)/C=C/C(C)=O)CC4)c3c2)cc1NS(=O)(=O)c1ccc(F)cc1F` [Example 191, (E)-2,4-difluoro-N-(2-(methoxy-d3)-5-(4-(4-(4-oxopent-2-enoyl)piperazin-1-yl)quinazolin-6-yl)pyridin-3-yl)benzene-sulfonamide], for which the IC50 came out at 20.2 nM in assay [1] and 36.4 nM in assay [2].
Regarding `COc1ncc(-c2ccc3ncnc(N4CCN(C(=O)/C=C/C(C)=O)CC4)c3c2)cc1NS(=O)(=O)c1ccccc1C` [Example 93, (E)-N-(2-methoxy-5-(4-(4-(4-oxopent-2-enoyl)piperazin-1-yl)quinazolin-6-yl)pyridin-3-yl)-2-methylbenzenesulfonamide], the half-inhibitory concentration (IC50) in assay [1] was determined as 18 nM; in assay [2] it was 69.3 nM.
